Article PMC6366423 (Journal of Enzyme Inhibition and Medicinal Chemistry, 2019)
Several values for one entry are separate records, joined by “and”; a condition that tells them apart may be missing. Equal values may be shown once. Read-outs that look alike come from different tables or passages of the source.

Legend:
[1] = Oxygen radical absorbance capacity assay (ORAC-FL); conditions: Trolox equivalents (TE), mean (n = 3) ± SD
hMAOA = target: T1, hMAOA (Homo sapiens, UniProt P21397); assay: MAO activity assay (kynuramine, HPLC-MS); assay type: biochemical; conditions: for inhibition at 10 µM: read-out: hMAOA enzymatic inhibition (%)
T1 sequence (P21397 1-527): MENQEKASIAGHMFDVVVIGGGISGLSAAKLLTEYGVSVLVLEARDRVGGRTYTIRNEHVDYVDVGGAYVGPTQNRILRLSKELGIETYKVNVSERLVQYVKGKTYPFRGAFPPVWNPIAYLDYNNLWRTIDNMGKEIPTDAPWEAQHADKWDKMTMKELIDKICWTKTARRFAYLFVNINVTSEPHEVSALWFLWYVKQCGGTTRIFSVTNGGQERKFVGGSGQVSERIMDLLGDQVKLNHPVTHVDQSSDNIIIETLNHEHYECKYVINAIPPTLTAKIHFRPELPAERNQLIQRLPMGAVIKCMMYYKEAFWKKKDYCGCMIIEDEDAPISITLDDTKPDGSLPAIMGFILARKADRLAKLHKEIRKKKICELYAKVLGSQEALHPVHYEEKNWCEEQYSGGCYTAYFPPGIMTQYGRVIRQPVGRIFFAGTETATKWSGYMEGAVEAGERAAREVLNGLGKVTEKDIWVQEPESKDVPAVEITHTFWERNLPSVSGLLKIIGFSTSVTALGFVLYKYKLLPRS

hMAOB = target: T2, hMAOB (Homo sapiens, UniProt P27338); assay: MAO activity assay (kynuramine, HPLC-MS); assay type: biochemical; conditions: for inhibition at 10 µM: read-out: hMAOB enzymatic inhibition (%); for IC50: IC50 hMAOB, mean ± SEM
T2 sequence (P27338 1-520): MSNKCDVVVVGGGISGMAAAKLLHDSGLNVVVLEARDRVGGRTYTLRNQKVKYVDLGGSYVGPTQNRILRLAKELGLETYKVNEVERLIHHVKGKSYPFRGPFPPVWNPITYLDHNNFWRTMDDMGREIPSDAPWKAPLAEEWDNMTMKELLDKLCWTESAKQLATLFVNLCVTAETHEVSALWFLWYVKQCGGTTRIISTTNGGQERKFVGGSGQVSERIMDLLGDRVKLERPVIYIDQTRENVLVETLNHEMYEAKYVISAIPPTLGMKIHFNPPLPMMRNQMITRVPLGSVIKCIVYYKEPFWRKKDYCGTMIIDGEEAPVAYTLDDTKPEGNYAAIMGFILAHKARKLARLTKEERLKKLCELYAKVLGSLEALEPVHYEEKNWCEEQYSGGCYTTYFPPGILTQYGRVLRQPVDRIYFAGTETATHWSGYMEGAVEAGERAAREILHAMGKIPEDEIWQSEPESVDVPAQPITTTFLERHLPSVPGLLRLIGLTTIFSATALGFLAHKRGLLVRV

EeAChE = target: T3, EeAChE (Electrophorus electricus, UniProt O42275); assay: biochemical; conditions: for IC50: mean ± SEM; for inhibition at 10 µM: read-out: EeAChE enzymatic inhibition (%)
T3 construct: EeAChE (type VI-S, purified from Electrophorus electricus); tissue type VI-S
T3 sequence (O42275 24-633): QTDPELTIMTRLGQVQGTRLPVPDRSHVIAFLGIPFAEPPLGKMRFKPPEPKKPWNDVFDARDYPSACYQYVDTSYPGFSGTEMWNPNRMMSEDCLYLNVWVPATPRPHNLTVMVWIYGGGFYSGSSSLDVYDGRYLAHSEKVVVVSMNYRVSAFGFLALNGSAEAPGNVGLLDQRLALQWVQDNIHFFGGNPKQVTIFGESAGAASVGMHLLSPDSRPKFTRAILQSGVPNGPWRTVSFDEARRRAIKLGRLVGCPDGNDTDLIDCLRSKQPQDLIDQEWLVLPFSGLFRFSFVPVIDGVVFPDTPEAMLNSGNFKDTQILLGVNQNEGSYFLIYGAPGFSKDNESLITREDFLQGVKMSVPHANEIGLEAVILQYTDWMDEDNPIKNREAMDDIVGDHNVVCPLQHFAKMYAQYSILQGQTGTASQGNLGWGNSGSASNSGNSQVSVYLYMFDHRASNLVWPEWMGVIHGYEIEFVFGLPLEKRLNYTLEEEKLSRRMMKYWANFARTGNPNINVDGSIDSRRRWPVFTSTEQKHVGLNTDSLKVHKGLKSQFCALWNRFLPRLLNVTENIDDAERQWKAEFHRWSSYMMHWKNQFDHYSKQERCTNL
Experimental: (§1) Inhibition of EeAChE and eqBuChE of hybrids 14a–p was carried out with EeAChE (type VI-S, purified from Electrophorus electricus) and eqBuChE (purified from equine serum) using Ellman’s protocol. Briefly, the reaction was performed in a final volume of 3 ml of a phosphate-buffered solution (0.1 M) at pH = 8.0 containing 5,5’-dithiobis-2-nitrobenzoic acid (DTNB) (2.625 μL, 0.35 mM), EeAChE (29 μl, 0.035 U/mL) or eqBuChE (60 μl, 0.05 U/mL), Bovine Albumin Serum phosphate-buffered solution (40 μL 1% w/v), and tested compound (3 µL). After 10 min of incubation, the substrate, AcTCh) iodide or butyrylthiocholine (BuTCh) iodide, was added, and the reaction was incubated for an additional 15 min.

eqBuChE = target: T4, eqBuChE (Equus caballus, UniProt P81908); assay: biochemical; assay type: biochemical, equine; conditions: for IC50: mean ± SEM
T4 construct: eqBuChE (purified from equine serum); from tissue; host or cells: equine serum
T4 sequence (P81908 whole entry): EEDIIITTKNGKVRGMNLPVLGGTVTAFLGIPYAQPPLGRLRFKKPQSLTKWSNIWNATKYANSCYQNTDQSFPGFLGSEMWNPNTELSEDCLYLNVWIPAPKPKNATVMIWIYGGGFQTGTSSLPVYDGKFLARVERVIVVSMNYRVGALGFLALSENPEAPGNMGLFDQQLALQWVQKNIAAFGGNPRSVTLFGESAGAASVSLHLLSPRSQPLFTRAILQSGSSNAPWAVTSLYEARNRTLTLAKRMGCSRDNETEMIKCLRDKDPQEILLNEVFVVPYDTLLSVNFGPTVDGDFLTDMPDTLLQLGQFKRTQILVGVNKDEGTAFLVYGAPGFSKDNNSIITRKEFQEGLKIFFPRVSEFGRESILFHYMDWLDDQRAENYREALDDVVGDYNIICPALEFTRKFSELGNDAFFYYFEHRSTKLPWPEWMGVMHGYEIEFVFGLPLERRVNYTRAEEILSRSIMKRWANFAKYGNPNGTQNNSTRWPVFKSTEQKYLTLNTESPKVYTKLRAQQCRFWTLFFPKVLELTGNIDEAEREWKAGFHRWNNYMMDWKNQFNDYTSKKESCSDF
Experimental: as §1

hAChE = target: T5, hAChE (Homo sapiens, UniProt P22303); assay: biochemical; assay type: biochemical; conditions: for inhibition at 10 µM: read-out: hAChE enzymatic inhibition (%); for IC50: mean ± SEM
T5 construct: purchased Sigma Aldrich; host or cells: HEK 293
T5 sequence (P22303 32-614): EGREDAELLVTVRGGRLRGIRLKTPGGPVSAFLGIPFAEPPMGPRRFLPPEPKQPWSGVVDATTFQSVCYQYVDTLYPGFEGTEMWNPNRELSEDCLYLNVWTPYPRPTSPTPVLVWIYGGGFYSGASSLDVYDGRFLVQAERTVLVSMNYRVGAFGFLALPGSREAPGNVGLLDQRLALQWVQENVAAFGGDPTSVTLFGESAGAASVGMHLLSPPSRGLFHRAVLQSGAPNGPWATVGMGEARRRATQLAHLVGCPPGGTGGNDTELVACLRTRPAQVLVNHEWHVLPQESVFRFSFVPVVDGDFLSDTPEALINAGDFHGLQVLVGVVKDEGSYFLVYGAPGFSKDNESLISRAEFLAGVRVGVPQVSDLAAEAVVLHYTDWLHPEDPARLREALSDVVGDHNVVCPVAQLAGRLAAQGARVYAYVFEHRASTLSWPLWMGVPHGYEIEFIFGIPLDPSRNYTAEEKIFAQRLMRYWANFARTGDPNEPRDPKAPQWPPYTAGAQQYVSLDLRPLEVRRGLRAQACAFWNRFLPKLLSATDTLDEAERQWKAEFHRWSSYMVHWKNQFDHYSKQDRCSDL

hBuChE = target: T6, hBuChE (Homo sapiens, UniProt P06276); assay: biochemical; assay type: biochemical; conditions: for inhibition at 10 µM: read-out: hBuChE enzymatic inhibition (%); for IC50: mean ± SEM
T6 construct: hBuChE from human serum (Sigma Aldrich, Madrid, Spain); purchased Sigma Aldrich; host or cells: human serum
T6 sequence (P06276 29-602): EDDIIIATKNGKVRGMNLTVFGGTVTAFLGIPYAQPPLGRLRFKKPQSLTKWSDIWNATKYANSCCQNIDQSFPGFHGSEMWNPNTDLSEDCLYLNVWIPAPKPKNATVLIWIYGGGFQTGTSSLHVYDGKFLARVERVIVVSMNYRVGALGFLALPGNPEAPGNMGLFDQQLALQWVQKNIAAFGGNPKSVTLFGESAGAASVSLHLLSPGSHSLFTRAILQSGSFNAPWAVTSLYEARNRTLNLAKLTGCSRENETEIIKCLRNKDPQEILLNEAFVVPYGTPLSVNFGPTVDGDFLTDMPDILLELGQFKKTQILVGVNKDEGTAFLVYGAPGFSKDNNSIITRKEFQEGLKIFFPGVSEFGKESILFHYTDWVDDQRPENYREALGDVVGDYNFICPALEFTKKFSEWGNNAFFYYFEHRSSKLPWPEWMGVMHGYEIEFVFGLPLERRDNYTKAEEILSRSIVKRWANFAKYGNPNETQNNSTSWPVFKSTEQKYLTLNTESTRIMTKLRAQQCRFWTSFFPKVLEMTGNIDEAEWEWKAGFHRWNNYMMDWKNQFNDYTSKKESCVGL

[2] = ORAC-FL, positive reference molecules; cited from earlier work

## CCCOc1ccc2[nH]cc(CCNC(=O)CN(CCCC3CCN(Cc4ccccc4)CC3)C(=O)c3cc(=O)c4ccccc4o3)c2c1 [14l]
[1]
  ORAC (Eq Trolox): 2.44 ± 0.16 Eq Trolox
hMAOA
  inhibition at 10 µM: < 40%
hMAOB
  inhibition at 10 µM: < 40%
EeAChE
  IC50: 380 ± 10 nM
eqBuChE
  IC50: 9.03 ± 0.18 nM
hAChE; at 10 μM
  inhibition at 10 µM: < 50%
hBuChE
  inhibition at 10 µM: < 50%

## CCCOc1ccc2[nH]cc(CCNC(=O)CN(CCC3CCN(Cc4ccccc4)CC3)C(=O)c3cc(=O)c4ccccc4o3)c2c1 [14h]
[1]
  ORAC (Eq Trolox): 6.07 ± 0.02 Eq Trolox
hMAOA
  inhibition at 10 µM: < 40%
hMAOB
  inhibition at 10 µM: < 40%
EeAChE
  IC50: 850 ± 20 nM
eqBuChE
  eqBuChE potency, fold more potent than Donepezil: 133 fold
  IC50: 6.76 ± 0.49 nM
hAChE
  IC50: 2040 ± 660 nM
hBuChE
  IC50: 63.9 ± 2.55 nM

## COc1ccc2[nH]cc(CCNC(=O)CN(CC3CCN(Cc4ccccc4)CC3)C(=O)c3cc(=O)c4ccccc4o3)c2c1 [14b]
[1]
  ORAC (Eq Trolox): 6.24 ± 0.05 Eq Trolox
hMAOA
  inhibition at 10 µM: < 40%
hMAOB
  inhibition at 10 µM: < 40%
EeAChE
  inhibition at 10 µM: < 50%
eqBuChE
  IC50: 636 ± 11.6 nM
hAChE; at 10 μM
  inhibition at 10 µM: < 50%
hBuChE
  inhibition at 10 µM: < 50%

## CCCOc1ccc2[nH]cc(CCNC(=O)CN(CC3CCN(Cc4ccccc4)CC3)C(=O)c3cc(=O)c4ccccc4o3)c2c1 [14d]
[1]
  ORAC (Eq Trolox): 6.76 ± 0.09 Eq Trolox
hMAOA
  inhibition at 10 µM: < 40%
EeAChE
  inhibition at 10 µM: < 50%
eqBuChE
  IC50: 46.9 ± 3.41 nM
hAChE; at 10 μM
  inhibition at 10 µM: < 50%
hBuChE
  inhibition at 10 µM: < 50%

## COc1ccc2[nH]cc(CCNC(=O)CN(CCCCC3CCN(Cc4ccccc4)CC3)C(=O)c3cc(=O)c4ccccc4o3)c2c1 [14n, N-(4–(1-benzylpiperidin-4-yl)butyl)-N-(2-((2–(5-methoxy-1H-indol-3-yl)ethyl)amino)-2-oxoethyl)-4-oxo-4H-chromene-2-carboxamide]
[1]
  ORAC (Eq Trolox): 3.04 Eq Trolox
[1]; listed as [14]n
  ORAC (Eq Trolox): 3.04 ± 0.36 Eq Trolox
hMAOA
  IC50: 2780 ± 120 nM
hMAOB
  IC50: 21300 nM
EeAChE
  IC50: 480 ± 10 nM
eqBuChE
  IC50: 43.4 ± 1.37 nM
hAChE
  IC50: 1730 ± 340 nM
hBuChE
  hBuChE, fold less active than Tacrine: 2 fold
  IC50: 11.9 ± 0.05 nM

## CC(C)Oc1ccc2[nH]cc(CCNC(=O)CN(CCCC3CCN(Cc4ccccc4)CC3)C(=O)c3cc(=O)c4ccccc4o3)c2c1 [14k]
[1]
  ORAC (Eq Trolox): 2.27 Eq Trolox
[1]; listed as [14]k
  ORAC (Eq Trolox): 2.27 ± 0.37 Eq Trolox
hMAOA
  IC50: 2990 ± 160 nM
hMAOB
  IC50: 15200 nM
EeAChE
  IC50: 360 ± 10 nM
eqBuChE
  IC50: 18.21 ± 0.18 nM
hAChE; at 10 μM
  hAChE enzymatic inhibition (%): – ^b
hBuChE
  IC50: 34.9 ± 0.85 nM

## CC(C)Oc1ccc2[nH]cc(CCNC(=O)CN(CC3CCN(Cc4ccccc4)CC3)C(=O)c3cc(=O)c4ccccc4o3)c2c1 [14c]
[1]
  ORAC (Eq Trolox): 6.11 ± 0.07 Eq Trolox
hMAOA
  inhibition at 10 µM: < 40%
hMAOB
  inhibition at 10 µM: < 40%
EeAChE
  inhibition at 10 µM: < 50%
eqBuChE
  IC50: 246 ± 9.91 nM
hAChE; at 10 μM
  inhibition at 10 µM: < 50%
hBuChE
  inhibition at 10 µM: < 50%

## COc1cc(/C=C/C(=O)O)ccc1O [Ferulic acid]
[2]
  ORAC (Eq Trolox): 3.74 Eq Trolox and 3.74 ± 0.22 Eq Trolox

## COc1ccc2[nH]cc(CCNC(=O)CN(CCCC3CCN(Cc4ccccc4)CC3)C(=O)c3cc(=O)c4ccccc4o3)c2c1 [14j]
[1]
  ORAC (Eq Trolox): 3.31 ± 0.10 Eq Trolox
hMAOA
  inhibition at 10 µM: < 40%
hMAOB
  inhibition at 10 µM: < 40%
EeAChE
  IC50: 270 nM
eqBuChE
  IC50: 37.1 ± 0.46 nM
hAChE; at 10 μM
  inhibition at 10 µM: < 50%
hBuChE
  inhibition at 10 µM: < 50%
